According to paper PMC10138577, “Prenylated Flavonoids with Selective Toxicity against Human Cancers” (International Journal of Molecular Sciences, 2023):

Tests used:
Type in all cases: cell-based
[1] = system: MCF-7 human breast adenocarcinoma cells; assay: In vitro antiproliferative assay (SRB), MCF-7; details: for IC50: Homo sapiens, MCF7, MCF-7, 72 h exposure, SRB, mean ± SD; for Calculated selectivity index SIB: IC50 BALB/3T3/IC50 MCF-7; for Calculated selectivity index SIA: IC50 HLMEC/IC50 MCF-7
Excerpt: (§1) The following established in vitro cell lines were applied: human breast adenocarcinoma (MCF-7 and SK-BR-3), human breast ductal carcinoma (T47D), human prostate adenocarcinoma (PC-3), human prostate carcinoma (Du145), human colorectal adenocarcinoma (HT-29 and LoVo), doxorubicin-resistant human colorectal adenocarcinoma (LoVo/Dx), human myelomonocytic leukemia (MV-4-11), human lung adenocarcinoma (A549), normal murine embryonic fibroblasts (BALB/3T3) and human lung microvascular endothelial (HLMEC). All the cell lines were obtained from the American Type Culture Collection (Rockville, MD, USA) except for LoVo and LoVo/DX, which were received from the Technical University of Gdańsk, Poland, courtesy of Prof. E. Borowski. All the cell lines were maintained in the Institute of Immunology and Experimental Therapy, Wroclaw, Poland. The cells were cultured in the following media: DMEM medium (BALB/3T3), Eagle medium (MCF-7, SK-BR-3, Du145), RPMI medium (HLMEC, MV-4-11) or RPMI 1640 + Opti-MEM (1:1) medium (A549, T47D, LoVo, LoVo/Dx, PC-3, HT-29). The DMEM medium was supplemented with 2 mM L-glutamine and 10% fetal bovine serum. The Eagle medium was supplemented with 4 mM L-glutamine, 10% fetal bovine serum, 1 mM sodium pyruvate for Du145 cells or 2 mM L-glutamine, 1% amino acids and 0.8 mg L^−1 of insulin for MCF-7 and SK-BR-3. The RPMI medium was supplemented with 2 mM L-glutamine, 1 mM sodium pyruvate and 10% fetal bovine serum. The RPMI 1640 + Opti-MEM (1:1) medium was supplemented with 2 mM L-glutamine, 5% fetal bovine serum (PC-3, A549) and 0.8 mg L^−1 insulin (T47D) or 1 mM sodium pyruvate (HT-29, LoVo, LoVoDx) and 0.1 ug/mL doxorubicin (LoVo/Dx). The media contained antibiotics: 100 µg mL^−1 streptomycin and 100 U mL^−1 penicillin. All the cell lines were incubated at 37 °C in a humid atmosphere saturated with 5% CO2.
(§2) The details of this technique were described by Skehan et al.. After 72 h of incubation with the tested compounds, the cells were fixed in situ by gently adding cold 50% trichloroacetic acid—TCA (50 µL per well). The plates were incubated at 4 °C for 1 h and then washed five times with tap water and air-dried. Next, the cellular material fixed with TCA was stained by adding 50 µL of 0.4% sulforhodamine B dissolved in 1% acetic acid to each well and incubating the wells for 30 min at room temperature. The unbound dye was removed by washing the plates five times with 1% acetic acid, whereas the stain bound to the cells was extracted with 150 µL of 10 mM unbuffered Tris base for determination of the optical density at a 540 nm wavelength in a computer-interfaced, 96-well microtiter plate reader–Multiskan FC photometer (Thermo Scientific, Waltham, MA, USA). The background optical density was measured in the wells filled with culture medium, without the cells.
(§3) Twenty-four hours before incubation with the tested compounds, the cells were seeded in 96-well plates (Sarstedt, Nümbrecht, Germany) at a density of 10^4 cells per well (10^3 cells per well for HLMEC) in 100 µL of culture medium. The analysis of the antiproliferative activity of the compounds was performed using sulforhothamine B (SRB) (for all the adherent cells) or 3-(4,5-dimethylthiazol-2-yl)-2,5-diphenyl tetrazolium bromide (MTT) (for the leukemia cells—MV-4-11). The details of this technique have been previously described by Skehan et al. and Antoszak et al.. An assay was performed after 72 h of exposure at varying concentrations (from 0.1 to 100 µg mL^−1) of xanthohumol (1), aurone (2) and the reference drug cisplatin. Each compound at each concentration was tested in a single experiment, which was repeated at least 3 times. […] The results were calculated as the IC50 (μM) (half maximal inhibitory concentration), i.e., the concentration of the tested agent that inhibits the proliferation of the cancer cell population by half. […]

[2] = system: HT-29 human colorectal adenocarcinoma cells; assay: In vitro antiproliferative assay (SRB), HT-29; details: for IC50: HT-29, 72 h exposure, SRB, mean ± SD; for Calculated selectivity index SIB: IC50 BALB/3T3/IC50 HT-29; for Calculated selectivity index SIA: IC50 HLMEC/IC50 HT-29
Excerpt: as §1, §2, §3

[3] = system: LoVo/Dx doxorubicin-resistant human colorectal adenocarcinoma cells; assay: In vitro antiproliferative assay (SRB), LoVo/Dx; details: for IC50: Homo sapiens, LoVo/Dx, 72 h exposure, SRB, mean ± SD; for Calculated selectivity index SIB: IC50 BALB/3T3/IC50 LoVo/Dx; for Calculated selectivity index SIA: IC50 HLMEC/IC50 LoVo/Dx
Excerpt: as §1, §2, §3

[4] = system: PC-3 human prostate adenocarcinoma cells; assay: In vitro antiproliferative assay (SRB), PC-3; details: for IC50: Homo sapiens, PC-3, 72 h exposure, SRB, mean ± SD; for Calculated selectivity index SIB: IC50 BALB/3T3/IC50 PC-3; for Calculated selectivity index SIA: IC50 HLMEC/IC50 PC-3
Excerpt: as §1, §2, §3

[5] = system: Du145 human prostate carcinoma cells; assay: In vitro antiproliferative assay (SRB), Du145; details: for IC50: Homo sapiens, DU-145, Du145, 72 h exposure, SRB, mean ± SD; for Calculated selectivity index SIB: IC50 BALB/3T3/IC50 Du145; for Calculated selectivity index SIA: IC50 HLMEC/IC50 Du145
Excerpt: as §1, §2, §3

[6] = system: A549 human lung adenocarcinoma cells; assay: In vitro antiproliferative assay (SRB), A549; details: for IC50: Homo sapiens, A549, 72 h exposure, SRB, mean ± SD; for Calculated selectivity index SIB: IC50 BALB/3T3/IC50 A549; for Calculated selectivity index SIA: IC50 HLMEC/IC50 A549
Excerpt: as §1, §2, §3

[7] = system: human lung microvascular endothelial (HLMEC) cells; assay: In vitro cytotoxicity against normal cells (SRB), HLMEC; details: for IC50: Homo sapiens, HLMEC normal cell line, 72 h exposure, SRB, mean ± SD, read-out: Antiproliferative activity IC50
Excerpt: as §1
(§4) The details of this technique were described by Skehan et al.. […] The unbound dye was removed by washing the plates five times with 1% acetic acid, whereas the stain bound to the cells was extracted with 150 µL of 10 mM unbuffered Tris base for determination of the optical density at a 540 nm wavelength in a computer-interfaced, 96-well microtiter plate reader–Multiskan FC photometer (Thermo Scientific, Waltham, MA, USA). The background optical density was measured in the wells filled with culture medium, without the cells.
(§5) Twenty-four hours before incubation with the tested compounds, the cells were seeded in 96-well plates (Sarstedt, Nümbrecht, Germany) at a density of 10^4 cells per well (10^3 cells per well for HLMEC) in 100 µL of culture medium. […] The results were calculated as the IC50 (μM) (half maximal inhibitory concentration), i.e., the concentration of the tested agent that inhibits the proliferation of the cancer cell population by half. […]

[8] = system: normal murine embryonic fibroblasts (BALB/3T3); assay: In vitro cytotoxicity against normal cells (SRB), BALB/3T3; details: BALB/3T3; for IC50: Mus musculus, BALB3T3 normal cell line, 72 h exposure, SRB, mean ± SD, read-out: Antiproliferative activity IC50
Excerpt: as §1, §4, §5

COc1cc(O)c(CC=C(C)C)c(O)c1C(=O)/C=C/c1ccc(O)cc1 [compound 1, 3′-[3″,3″-dimethylallyl]-2′,4′,4-trihydroxy-6′-methoxychalcone]
IC50 [1]: 9.29 ± 0.27 µM | Calculated selectivity index SIB [1]: 2.11 | Calculated selectivity index SIA [1]: 3.91 | IC50 ([2]; listed as xanthohumol (1)): 91.3 ± 8.92 µM | IC50 ([2]; Homo sapiens, HT-29, 72 h): > 50 µM | Calculated selectivity index SIB [2]: 0.21 | Calculated selectivity index SIA [2]: 0.40 | IC50 [3]: 7.28 ± 1.22 µM | Calculated selectivity index SIB [3]: 2.70 | Calculated selectivity index SIA [3]: 4.99 | IC50 [4]: 9.15 ± 0.88 µM | Calculated selectivity index SIB [4]: 2.14 | Calculated selectivity index SIA [4]: 3.97 | IC50 [5]: 10.3 ± 0.42 µM | Calculated selectivity index SIB [5]: 1.90 | Calculated selectivity index SIA [5]: 3.51 | IC50 [6]: 10 ± 0.71 µM | Calculated selectivity index SIB [6]: 1.96 | Calculated selectivity index SIA [6]: 3.62 | IC50 [7]: 36.3 ± 6.7 µM | IC50 [8]: 19.6 ± 2.95 µM

COc1cc(O)c(CC=C(C)C)c2c1C(=O)/C(=C/c1ccc(O)cc1)O2 [compound 2, (Z)-6,4′-dihydroxy-4-methoxy-7-prenylaurone]
IC50 [1]: 9.28 ± 0.5 µM | Calculated selectivity index SIB [1]: 4.79 | Calculated selectivity index SIA [1]: 5.69 | IC50 ([2]; listed as aurone (2)): 62.1 ± 16.5 µM | IC50 ([2]; Homo sapiens, HT-29, 72 h): > 50 µM | Calculated selectivity index SIB [2]: 0.72 | Calculated selectivity index SIA [2]: 0.85 | IC50 [3]: 7.83 ± 2.82 µM | Calculated selectivity index SIB [3]: 5.68 | Calculated selectivity index SIB ([3]; listed as aurone (2)): 5.97 | Calculated selectivity index SIA [3]: 6.75 | IC50 [4]: 19.1 ± 9.27 µM | Calculated selectivity index SIB [4]: 2.33 | Calculated selectivity index SIA [4]: 2.77 | IC50 [5]: 14.7 ± 4.42 µM | Calculated selectivity index SIB [5]: 3.02 | Calculated selectivity index SIA [5]: 3.59 | IC50 [6]: 16.6 ± 3.29 µM | Calculated selectivity index SIB [6]: 2.68 | Calculated selectivity index SIA [6]: 3.18 | reduction of cytotoxic effect against normal cells relative to xanthohumol (1) ([7]; HLMEC, p < 0.05): 1.5 fold | IC50 [7]: 52.8 ± 8.03 µM | reduction of cytotoxic effect against normal cells relative to xanthohumol (1) ([8]; p < 0.05): 2.3 fold | IC50 [8]: 44.5 ± 5.16 µM
